Results as given in patent publication US20220226341A1, “Pharmaceutical Composition for Alzheimer's Disease” (Kyoto University, priority 2019, published 2022).

What follows are compounds tested against CDK9/CycT1 (Homo sapiens, UniProt P50750) (assay: CDK9 inhibitory activity, Off-chip Mobility Shift Assay (MSA)). Conditions: room temperature, one hour, read-out: IC50 value with respect to CDK9/CycT1.
Format: biochemical
Description: [Assay of CDK9 Inhibitory Activity]
The tests for confirming CDK9 inhibitory activity were carried out by the following procedure according to Off-chip Mobility Shift Assay (MSA).
A substrate/ATP/metal solution (4×) was prepared with use of a kit buffer (20 mM HEPES, 0.01% Triton X-100, 5 mM DTT, pH7.5). A kinase solution (2×) was prepared with use of an assay buffer.
2) The test substance solutions, the substrate/ATP/metal solution, and the kinase solution were mixed in wells of a polypropylene plate, and were caused to react at room temperature for one hour.
3) A termination buffer (QuickScout Screening Assist MSA; Cama Biosciences Inc.)
was added thereto to stop the reaction.
4) Substrate peptides and phosphorylated peptides in the reaction solutions were separated and quantified in LabChip™ System (PerkinElmer Co., Ltd.).
5) Kinase reaction activities were evaluated based on a product ratio (P/(P+S)) calculated from a peak height of the substrate peptide (S) and a peak height of the phosphorylated peptide (P).

Chain of CDK9/CycT1 (P50750 whole entry): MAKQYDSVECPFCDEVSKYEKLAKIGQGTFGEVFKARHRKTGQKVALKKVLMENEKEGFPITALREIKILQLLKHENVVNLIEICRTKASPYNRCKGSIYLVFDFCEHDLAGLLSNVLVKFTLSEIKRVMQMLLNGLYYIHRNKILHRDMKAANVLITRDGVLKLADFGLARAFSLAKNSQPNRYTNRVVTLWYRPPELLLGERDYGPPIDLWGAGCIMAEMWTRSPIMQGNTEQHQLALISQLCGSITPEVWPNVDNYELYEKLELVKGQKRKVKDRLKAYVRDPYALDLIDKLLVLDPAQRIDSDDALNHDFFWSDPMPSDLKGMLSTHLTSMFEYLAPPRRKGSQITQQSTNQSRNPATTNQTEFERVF
Chain of CDK9/CycT1 (O60563 whole entry partner): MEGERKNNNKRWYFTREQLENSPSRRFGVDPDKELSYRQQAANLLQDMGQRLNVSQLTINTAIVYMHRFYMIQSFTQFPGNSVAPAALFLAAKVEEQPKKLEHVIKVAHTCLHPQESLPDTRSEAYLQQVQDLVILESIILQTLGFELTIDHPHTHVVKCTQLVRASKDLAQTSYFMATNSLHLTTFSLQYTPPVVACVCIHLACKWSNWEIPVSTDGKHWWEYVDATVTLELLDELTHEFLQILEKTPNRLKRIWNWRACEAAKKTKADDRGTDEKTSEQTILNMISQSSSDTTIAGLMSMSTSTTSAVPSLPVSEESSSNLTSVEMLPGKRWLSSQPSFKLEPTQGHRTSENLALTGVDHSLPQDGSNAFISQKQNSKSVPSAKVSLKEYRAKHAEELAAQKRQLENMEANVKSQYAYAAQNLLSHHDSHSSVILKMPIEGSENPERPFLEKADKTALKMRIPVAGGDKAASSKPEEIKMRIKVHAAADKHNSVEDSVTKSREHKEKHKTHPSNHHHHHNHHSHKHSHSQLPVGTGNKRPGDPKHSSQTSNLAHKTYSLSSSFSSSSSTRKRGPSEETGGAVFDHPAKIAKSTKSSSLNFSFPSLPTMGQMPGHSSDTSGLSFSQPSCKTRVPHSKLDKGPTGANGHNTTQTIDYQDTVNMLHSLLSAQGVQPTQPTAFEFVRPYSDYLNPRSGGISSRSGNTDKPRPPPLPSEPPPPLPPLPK

IC50 [µM]	Structure (SMILES)
13.7	O=C(Nc1cc(F)ccc1N1CCCCCC1)c1ccncc1 [Compound 4]
13.1	O=C(Nc1cc(F)ccc1N1CCCCC1)c1ccncc1 [Compound 2]
13.3	Fc1ccc(N2CCCCCC2)c(NC(=S)c2ccncc2)c1 [Compound 3]
